# Target: human RIP1 kinase domain (2-375) (Homo sapiens (Human), UniProt Q13546)
# Assay: biochemical
# Format: biochemical
# Conditions: Table 1; apparent Ki (Morrison tight-binding fit); 50 nM RIP1 kinase domain, 50 uM ATP, 2 hours incubation; read-out: RIP1 Ki
# Method in brief: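 Ki^app comes from Morrison tight-binding fits of fractional activity versus compound concentration. Activity was read as ADP production, via tracer displacement lowering fluorescence polarization (633 nm laser). Conditions: 2 h, 50 nM insect-cell-expressed enzyme, 50 uM ATP, 30 mM MgCl2, 1 mM DTT, 0.5% DMSO, pH 7.5 Hepes.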
# Sequence of human RIP1 kinase domain (2-375) (Q13546 2-375): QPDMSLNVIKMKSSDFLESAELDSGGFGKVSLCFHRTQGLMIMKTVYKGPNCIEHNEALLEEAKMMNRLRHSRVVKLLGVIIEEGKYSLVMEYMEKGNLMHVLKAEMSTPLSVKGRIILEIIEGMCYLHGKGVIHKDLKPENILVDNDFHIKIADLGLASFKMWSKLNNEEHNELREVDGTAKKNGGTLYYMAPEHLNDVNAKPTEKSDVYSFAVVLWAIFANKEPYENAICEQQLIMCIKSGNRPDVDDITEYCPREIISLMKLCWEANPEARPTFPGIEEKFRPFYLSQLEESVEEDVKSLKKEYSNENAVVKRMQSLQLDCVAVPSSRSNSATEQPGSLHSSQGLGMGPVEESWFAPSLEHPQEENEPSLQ
row,SMILES,Ki
1,"CN1C(=O)[C@@H](NC(=O)c2nnc(Cc3ccccc3)[nH]2)CCn2nc(C3CC3)cc21 [Example 79, (S)-5-benzyl-N-(2-cyclopropyl-4-methyl-5-oxo-5,6,7,8-tetrahydro-4H-pyrazolo[1,5-a][1,3]diazepin-6-yl)-4H-1,2,4-triazole-3-carboxamide]",34 nM
2,"CN1C(=O)[C@@H](NC(=O)c2n[nH]c3ccccc23)COc2ccccc21 [Example 33, (S)—N-(5-methyl-4-oxo-2,3,4,5-tetrahydrobenzo[b][1,4]oxazepin-3-yl)-1H-indazole-3-carboxamide]",3500 nM

# Same assay, conditions: Table 5; apparent Ki (Morrison tight-binding fit); 50 nM RIP1 kinase domain, 50 uM ATP, 2 hours incubation; read-out: Ki
row,Ki,SMILES
1,214 nM,"CN1C(=O)C(NC(=O)c2ncn(Cc3ccccc3)n2)CCn2nc(CN3CCC(F)(F)C3)cc21 (single isomer, unassigned) [Example 719, 1-benzyl-N-[2-[(3,3-difluoropyrrplidin-1-yl)methyl]-4-methyl-5-oxo-7,8-dihydro-6H-pyrazolo[1,5-a][1,3]diazepin-6-yl]-1,2,4-triazole-3-carboxamide]"
2,140 nM,"Cc1cc2n(n1)CC[C@H](NC(=O)c1ccn(Cc3ccccc3)n1)C(=O)N2C [Example 741, 1-benzyl-N-[(6S)-2,4-dimethyl-5-oxo-7,8-dihydro-6H-pyrazolo[1,5-a][1,3]diazepin-6-yl]pyrazole-3-carboxamide]"
3,530 nM,"CN1C(=O)[C@@H](NC(=O)c2ncn(Cc3ccccc3)n2)CCn2nc(Cn3ccnc3)cc21 [Example 707, (S)-1-benzyl-N-[2-(imidazol-1-ylmethyl)-4-methyl-5-oxo-7,8-dihydro-6H-pyrazolo[1,5-a][1, 3]diazepin-6-yl]-1,2,4-triazole-3-carboxamide]"

# Same assay, conditions: human RIP1 kinase domain (2-375), 50 uM ATP, 2 hours incubation, Transcreener ADP assay; read-out: RIP1 Ki
row,Ki,SMILES
1,21 nM,"CN1C(=O)[C@@H](NC(=O)c2ncn(Cc3ccc(F)cc3)n2)CCn2nc(C3CC3)cc21 [Example 225, (S)—N-(2-cyclopropyl-4-methyl-5-oxo-5,6,7,8-tetrahydro-4H-pyrazolo[1,5-a][1,3]diazepin-6-yl)-1-(4-fluorobenzyl)-1H-1,2,4-triazole-3-carboxamide]"
2,2100 nM,"CN1C(=O)[C@@H](NC(=O)c2nnn3c2CC2(CCCC2)C3)CCn2nccc21 [Example 120, (S)—N-(4-methyl-5-oxo-5,6,7,8-tetrahydro-4H-pyrazolo[1,5-a][1,3]diazepin-6-yl)-4′H,6′H-spiro[cyclopentane-1,5′-pyrrolo[1,2-c][1,2,3]triazole]-3′-carboxamide]"
3,50.4 nM,"CN1C(=O)[C@@H](NC(=O)c2nnn3c2CC2(CCCC2)C3)COc2ccccc21 [Example 118, (S)—N-(5-methyl-4-oxo-2,3,4,5-tetrahydrobenzo[b][1,4]oxazepin-3-yl)-4′H,6′H-spiro[cyclopentane-1,5′-pyrrolo[1,2-c][1,2,3]triazole]-3′-carboxamide]"

# Same assay, conditions: human RIP1 kinase domain (2-375), Transcreener ADP assay, 50 uM ATP, 2 hours incubation; read-out: RIP1 Ki
row,Ki,SMILES
1,1000 nM,"Cc1cc2n(n1)CCC(NC(=O)c1ncn(CCC(F)(F)F)n1)C(=O)N2C (centres unmarked) [Example 250, N-(2,4-dimethyl-5-oxo-5,6,7,8-tetrahydro-4H-pyrazolo[1,5-a][1,3]diazepin-6-yl)-1-(3,3,3-trifluoropropyl)-1H-1,2,4-triazole-3-carboxamide]"
2,1100 nM,"CC[C@@]1(C)OCc2cnc(C(=O)N[C@H]3CCn4nc(C)cc4N(C)C3=O)cc21 [Example 275, (R)—N—((S)-2,4-dimethyl-5-oxo-5,6,7,8-tetrahydro-4H-pyrazolo[1,5-a][1,3]diazepin-6-yl)-1-ethyl-1-methyl-1,3-dihydrofuro[3,4-c]pyridine-6-carboxamide]"
3,118 nM,"CN1C(=O)C(NC(=O)c2cn(Cc3ccccc3)nn2)CCn2cncc21 (centres unmarked) [Example 295, 1-benzyl-N-(1-methyl-2-oxo-2,3,4,5-tetrahydro-1H-imidazo[1,5-a][1,3]diazepin-3-yl)-1H-1,2,3-triazole-4-carboxamide]"
4,70.7 nM,"CC(C1CCn2nnc(C(=O)N[C@H]3COc4ccccc4N(C)C3=O)c2C1)C(F)(F)F (stereo partly drawn) [Example 252, N—((S)-5-methyl-4-oxo-2,3,4,5-tetrahydrobenzo[b][1,4]oxazepin-3-yl)-5-(1,1,1-trifluoropropan-2-yl)-4,5,6,7-tetrahydro-[1,2,3]triazolo[1,5-a]pyridine-3-carboxamide]"
5,37.4 nM,"CN1C(=O)[C@@H](NC(=O)c2cc3c(cn2)COC3(C)C2CC2)COc2ccccc21 (stereo partly drawn) [Example 267, 1-cyclopropyl-1-methyl-N—((S)-5-methyl-4-oxo-2,3,4,5-tetrahydrobenzo[b][1,4]oxazepin-3-yl)-1,3-dihydrofuro[3,4-c]pyridine-6-carboxamide]"
6,72.2 nM,"CN1C(=O)[C@@H](NC(=O)c2ncn(Cc3ccccc3)n2)CCn2nc(C3CC3(F)F)cc21 (stereo partly drawn) [Example 283, 1-benzyl-N-((6S)-2-(2,2-difluorocyclopropyl)-4-methyl-5-oxo-5,6,7,8-tetrahydro-4H-pyrazolo[1,5-a][1,3]diazepin-6-yl)-1H-1,2,4-triazole-3-carboxamide]"

# Same assay, conditions: read-out: RIP1 Ki
row,SMILES,Ki
1,"CN1C(=O)[C@@H](NC(=O)c2n[nH]c3c2C[C@@H](C(C)(C)C)CC3)COc2ccccc21 [Example 58, (S)-5-(tert-butyl)-N-((S)-5-methyl-4-oxo-2,3,4,5-tetrahydrobenzo[b][1,4]oxazepin-3-yl)-4,5,6,7-tetrahydro-1H-indazole-3-carboxamide]",121 nM

# Same assay, conditions: scale-up batches (Examples A-C); apparent Ki (Morrison tight-binding fit); 50 nM RIP1 kinase domain, 50 uM ATP; read-out: Ki
row,Ki,SMILES
1,16 nM,"CN1C(=O)[C@@H](NC(=O)c2ncn(Cc3ccccc3)n2)CCn2nc(C3CC3)cc21 [Example A, (S)-1-benzyl-N-(2-cyclopropyl-4-methyl-5-oxo-5,6,7,8-tetrahydro-4H-pyrazolo[1,5-a][1,3]diazepin-6-yl)-1H-1,2,4-triazole-3-carboxamide]"

# Same assay, conditions: tight-binding apparent inhibition constant; human RIP1 kinase domain (2-375) 50 nM, 50 uM ATP, 2 hours; read-out: Ki
row,Ki,SMILES
1,7.06 nM,"CCC[C@H]1CCCc2nc(C(=O)N[C@H]3COc4cc(F)cc(F)c4NC3=O)nn21 (single isomer, unassigned) [Example 446]"
2,2600 nM,CN1C(=O)[C@@H](NC(=O)c2ncn(CC3CCOC3)n2)CCn2nc(C3CC3)cc21 (some centres unmarked) [Example 480]
3,14 nM,"CCC[C@@]1(C)OCc2cnc(C(=O)N[C@H]3COc4cc(F)cc(F)c4NC3=O)nc21 [Example 620, (7R)-7-methyl-7-propyl-N-[(3S)-6,8-difluoro-4-oxo-3,5-dihydro-2H-1,5-benzoxazepin-3-yl]-5H-furo[3,4-d]pyrimidine-2-carboxamide]"
4,51 nM,"CN1C(=O)C(NC(=O)c2ncn(Cc3ccccc3)n2)CCn2nc(CC3CC3)cc21 (centres unmarked) [Example 456, 1-Benzyl-N-(2-(cyclopropylmethyl)-4-methyl-5-oxo-5,6,7,8-tetrahydro-4H-pyrazol[1,5-a][1,3]diazepin-6-yl)-1H-1,2,4-triazole-3-carboxamide]"
5,360 nM,"Cc1cc2n(n1)CC[C@H](NC(=O)c1ncn(CC3CCCOC3)n1)C(=O)N2C (stereo partly drawn) [Example 475, N-(6S)-2,4-dimethyl-5-oxo-7,8-dihydro-6H-pyrazolo[1,5-a][1,3]diazepin-6-yl-1-(tetrahydropyran-3-ylmethyl)-1,2,4-triazole-3-carboxamide]"
6,40 nM,"Cc1cc2n(n1)CC[C@H](NC(=O)c1nc3n(n1)[C@@H](c1ccccc1F)CC3)C(=O)N2C [Example 666, (5R)-5-(2-fluorophenyl)-N-[(6S)-2,4-dimethyl-5-oxo-7,8-dihydro-6H-pyrazolo[1,5-a][1,3]diazepin-6-yl]-6,7-dihydro-5H-pyrrolo[1,2-b][1,2,4]triazole-2-carboxamide]"
7,31.1 nM,"C=C(C)c1cc2n(n1)CCC(NC(=O)c1ncn(Cc3ccccc3)n1)C(=O)N2C (racemic) [Example 365, 1-benzyl-N-(2-isopropenyl-4-methyl-5-oxo-7,8-dihydro-6H-pyrazolo[1,5-a][1,3]diazepin-6-yl)-1,2,4-triazole-3-carboxamide]"
8,130 nM,"Cc1cc2n(n1)CC[C@H](NC(=O)c1nc3n(n1)CCN3c1ccccc1)C(=O)N2C [Example 636, 4-phenyl-N-[(6S)-2,4-dimethyl-5-oxo-7,8-dihydro-6H-pyrazolo[1,5-a][1,3]diazepin-6-yl]-5,6-dihydroimidazo[1,2-b][1,2,4]triazole-2-carboxamide]"
9,5 nM,"O=C(N[C@H]1CCc2cc(F)cc(F)c2NC1=O)c1nc2n(n1)CC[C@H]2c1ccccc1 (single isomer, unassigned) [Example 628]"
10,214 nM,"CN1C(=O)C(NC(=O)c2ncn(Cc3ccccc3)n2)CCn2nc(CN3CCC(F)(F)C3)cc21 (single isomer, unassigned) [Example 448, 1-benzyl-N-(2-((3,3-difluoropyrrolidin-1-yl)methyl)-4-methyl-5-oxo-5,6,7,8-tetrahydro-4H-pyrazolo[1,5-a][1,3]diazepin-6-yl)-1H-1,2,4-triazole-3-carboxamide]"
11,206 nM,"CN1C(=O)[C@@H](NC(=O)c2nc3n(n2)CCNC3c2ccccc2)COc2ccccc21 (stereo partly drawn) [Example 452, N—((S)-5-methyl-4-oxo-2,3,4,5-tetrahydrobenzo[b][1,4]oxazepin-3-yl)-8-phenyl-5,6,7,8-tetrahydro-[1,2,4]triazolo[1,5-a]pyrazine-2-carboxamide]"
12,17 nM,"CN1C(=O)[C@@H](NC(=O)c2nnc(Cc3cccc(F)c3F)[nH]2)CCn2nc(C3CC3)cc21 [Example 514, 5-[(2,3-difluorophenyl)methyl]-N-(6 S)-2-cyclopropyl-4-methyl-5-oxo-7,8-dihydro-6H-pyrazolo[1,5-a][1,3]diazepin-6-yl-4H-1,2,4-triazole-3-carboxamide]"
13,87.9 nM,"CN1C(=O)[C@@H](NC(=O)c2nc3n(n2)[C@@H](c2c(F)cccc2F)CCC3)CCn2nccc21 (racemic) [Example 401, (R)-5-(2,6-difluorophenyl)-N—((S)-4-methyl-5-oxo-5,6,7,8-tetrahydro-4H-pyrazolo[1,5-a][1,3]diazepin-6-yl)-5,6,7,8-tetrahydro-[1,2,4]triazolo[1,5-a]pyridine-2-carboxamide]"
